Where two headings read alike, the source gives them in different places.

The conditions of series [1]: rat, in vivo.
Experimental: In vivo biodistribution: 0.1 ml Tc^99m prep was injected i.v. into a laterial tail vein of 6 anaesthetised rats.
At 2 minutes and 60 minutes post-injection, 3 rats were sacrificed by decapitation, bled from the neck and dissected. The following organs were removed at dissection: kidney; bladder(+ urine), lung, liver, spleen, stomach, small intestine, large intestine, brain (weighed), heart (weighed), thyroid and samples of blood (weighed) and muscle (weighed), the residual carcass and the tail (injection site). Subsequently samples were counted in an automatic twin crystal gamma counter.
(§1) Percentage biodistribution of injected material was calculated (after correction for background) for all organs using the formula: [formula]
(§2) Since only samples of muscle and blood were taken, the percentage in these tissues was calculated assuming blood and muscle to represent 5.8 and 43% of total animal weight respectively using the formula: [formula]
Series [2] is described as follows: Animal biodistribution of 99mTc complexes in guinea pigs.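 Also: Heart, liver and kidney plus urine values are percent of the injected material, background-corrected.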 It is filed as in vivo, guinea pig.
Experimental: as §1, §2
Since only samples of muscle and blood were taken, the percentage in these tissues was calculated assuming blood and muscle to represent 5.8 and 43% of total animal weight respectively using the formula: [formula] where CF= 0.058 for blood
Setting [3] is: guinea pig, 2 min p.i. in vivo, mean.
Where [4] appears, read: guinea pig, 60 min p.i. in vivo, mean.
Where [5] appears, read: Table VIII, [TcL3 ]^+ complex of the ligand, guinea pigs, 2 min p.i.
Setting [6] is: Table VIII, [TcL3 ]^+ complex of the ligand, guinea pigs, 60 min p.i.
The mark [7] stands for this setting: from Table VIII, [TcL3 ]^+, guinea pigs, 60'.

`COCC(COC)(CP(C)C)CP(C)C.COCC(COC)(CP(C)C)CP(C)C.COCC(COC)(CP(C)C)CP(C)C.[99Tc+]` [Example 18]: in series [1] (2 min), the Blood turned out to be 2.85 injected dose/organ, the Heart is on record as 1.87 injected dose/organ, the “Heart/Blood Counts/Gram ratio” value was 10.4 and the “Heart/Liver Counts/Gram ratio” value stood at 1.68. Moreover, in series [1] (2 min), the “Heart/Lung Counts/Gram ratio” value came to 1.2, the “Heart/Muscle Counts/Gram ratio” value was 8.45, the “Kidney + Urine” value is reported as 10.6 injected dose/organ and the Liver amounted to 16.3 injected dose/organ. Also, in series [1] (2 min), the “Liver + GI” value amounted to 36.4 injected dose/organ, the Lung was 2.59 injected dose/organ and the Muscle was 26.3 injected dose/organ. For the same compound, in series [1] (60 min), the Blood is 0.14 injected dose/organ, the Heart came out at 1.41 injected dose/organ, the “Heart/Blood Counts/Gram ratio” value is on record as 152 and the “Heart/Liver Counts/Gram ratio” value was 8.42. In addition, in series [1] (60 min), the “Heart/Lung Counts/Gram ratio” value is reported as 3.2, the “Heart/Muscle Counts/Gram ratio” value amounted to 8.36, the “Kidney + Urine” value is reported as 12.2 injected dose/organ and the Liver was 2.45 injected dose/organ. For the same compound, in series [1] (60 min), the “Liver + GI” value turned out to be 49.92 injected dose/organ, the Lung came out at 0.75 injected dose/organ and the Muscle was 19.4 injected dose/organ. In addition, in series [2] (setting [3]), the Blood came to 5.14 % injected dose/organ, the Heart came to 1.2 % injected dose/organ, the “Heart/Blood Counts/Gram ratio” value is 5.7 and the “Heart/Liver Counts/Gram ratio” value stood at 1.12. In series [2] (setting [3]), the “Heart/Lung Counts/Gram ratio” value stood at 0.6, the “Heart/Muscle Counts/Gram ratio” value is given as 6.5, the “Kidney + Urine” value came to 14.5 % injected dose/organ and the Liver is on record as 17.3 % injected dose/organ. For the same compound, in series [2] (setting [3]), the “Liver + GI” value came out at 36.9 % injected dose/organ, the Lung is 1.65 % injected dose/organ and the Muscle came to 27.4 % injected dose/organ. In addition, in series [2] (setting [4]), the Blood amounted to 0.46 % injected dose/organ, the Heart was 1.06 % injected dose/organ, the “Heart/Blood Counts/Gram ratio” value amounted to 56.1 and the “Heart/Liver Counts/Gram ratio” value is listed as 5.63. Also, in series [2] (setting [4]), the “Heart/Lung Counts/Gram ratio” value amounted to 1.9, the “Heart/Muscle Counts/Gram ratio” value stood at 6.14, the “Kidney + Urine” value is recorded as 15.0 % injected dose/organ and the Liver amounted to 2.6 % injected dose/organ. In addition, in series [2] (setting [4]), the “Liver + GI” value was determined as 53.3 % injected dose/organ, the Lung is recorded as 0.56 % injected dose/organ and the Muscle was determined as 23.7 % injected dose/organ.

In the case of `COCP(C)CCP(C)COC` (centres unmarked) [Example 1, MeP(CH2 OMe)-(CH2)2 -(Me)P(CH2 OMe)], in series [1], the “heart uptake and retention compared with dmpe complex” value was “significantly higher heart uptake and retention at 2' and 60'”; the “heart/liver ratio compared with dmpe complex” value was “significantly increased heart/liver ratio at 60'”; the “liver retention compared with dmpe complex” value is reported as “reduced liver retention at 60'”. Also, in series [1] (2 min), the Heart is recorded as 1.71 % injected dose, the “Heart/Blood Counts/Gram ratio” value is 4.19, the “Heart/Liver Counts/Gram ratio” value was 1.81 and the “Heart/Muscle Counts/Gram ratio” value came out at 6.61. The compound further yielded a Liver in series [1] (2 min) of 12.6 % injected dose. Moreover, in series [1] (60 min), the Heart came to 1.42 % injected dose, the “Heart/Blood Counts/Gram ratio” value is reported as 25.7, the “Heart/Liver Counts/Gram ratio” value was found to be 10.8 and the “Heart/Muscle Counts/Gram ratio” value is recorded as 5.46. This compound had a Liver in series [1] (60 min) of 1.53 % injected dose. In series [2] (setting [5]), the Heart stood at 0.98 % injected dose, the “Heart/Blood Counts/Gram ratio” value amounted to 1.63, the “Heart/Liver Counts/Gram ratio” value stood at 0.82 and the “Heart/Muscle Counts/Gram ratio” value came out at 8.18. The Liver in series [2] (setting [5]) is 24.0 % injected dose. In series [2] (setting [6]), the Heart is 0.83 % injected dose, the “Heart/Blood Counts/Gram ratio” value is given as 10.5, the “Heart/Liver Counts/Gram ratio” value is listed as 0.72 and the “Heart/Muscle Counts/Gram ratio” value is recorded as 4.29. The compound also came in with a Liver in series [2] (setting [6]) of 13.3 % injected dose. In series [2] (from Table VIII, [TcL3 ]^+, guinea pigs, 2' and 60'), the “heart uptake and retention compared with dmpe complex” value was “increased heart uptake and retention at 2' and 60'”. In addition, in series [2] (setting [7]), the “heart/blood ratio compared with dmpe complex” value is “better”, the “heart/liver ratio compared with dmpe complex” value is given as “better”, the “heart/muscle ratio compared with dmpe complex” value is recorded as “better” and the “liver retention compared with dmpe complex” value is “much lower liver retention at 60'”.

As to `COCP(C)CCP(C)C` (centres unmarked) [Example 2, Me2 P-(CH2)2 -P(Me) (CH2 OMe)], the “general trend of biodistribution compared with dmpe complexes” value in series [1] is on record as “show the same general trend”. For the same compound, in series [1] (2 min), the Heart was 0.96 % injected dose, the “Heart/Blood Counts/Gram ratio” value is on record as 9.05, the “Heart/Liver Counts/Gram ratio” value amounted to 0.57 and the “Heart/Muscle Counts/Gram ratio” value worked out at 4.99. In series [1] (2 min), this compound showed a Liver of 20.45 % injected dose. Also, in series [1] (60 min), the Heart was determined as 0.94 % injected dose, the “Heart/Blood Counts/Gram ratio” value worked out at 49.63, the “Heart/Liver Counts/Gram ratio” value was 7.26 and the “Heart/Muscle Counts/Gram ratio” value stood at 4.17. Further, the Liver in series [1] (60 min) is on record as 1.62 % injected dose. For the same compound, in series [2] (setting [5]), the Heart stood at 0.96 % injected dose, the “Heart/Blood Counts/Gram ratio” value was 1.59, the “Heart/Liver Counts/Gram ratio” value is on record as 0.51 and the “Heart/Muscle Counts/Gram ratio” value worked out at 9.19. Besides, in series [2] (setting [5]), the Liver is listed as 24.85 % injected dose. Further, in series [2] (setting [6]), the Heart turned out to be 0.43 % injected dose, the “Heart/Blood Counts/Gram ratio” value is 7.82, the “Heart/Liver Counts/Gram ratio” value stood at 0.30 and the “Heart/Muscle Counts/Gram ratio” value was determined as 4.60. In series [2] (setting [6]), the Liver amounted to 26.13 % injected dose.

Turning to `COCCOCC(COC)(CP(C)C)CP(C)C` [PL46], in series [1] (2 min), the HEART/BLOOD is given as 14.0, the HEART/LIVER was 1.82 and the Heart was determined as 1.87. In series [1] (60 min), this compound came in with an HEART/BLOOD of 345, an HEART/LIVER of 17.1 and a Heart of 1.77.

In series [1] (2 min), `CP(C)CC1(CP(C)C)COC(C)(C)OC1` [PL35] had an HEART/BLOOD of 4.07, an HEART/LIVER of 0.46 and a Heart of 0.88. Besides, in series [1] (60 min), the HEART/BLOOD was found to be 35.3, the HEART/LIVER came to 1.65 and the Heart was determined as 0.55.

In series [1] (2 min), `CCOCCOCCOC(CP(C)C)CP(C)C` [PL41] displayed an HEART/BLOOD of 7.83, an HEART/LIVER of 0.83 and a Heart of 1.08. For the same compound, in series [1] (60 min), the HEART/BLOOD is given as 122, the HEART/LIVER came out at 4.65 and the Heart was 1.02.

In series [1] (2 min), `COC(CC(OC)P(C)C)P(C)C` (centres unmarked) [PL30] registered an HEART/BLOOD of 2.78, an HEART/LIVER of 5.01 and a Heart of 1.30.

As for `COCC(COC)(CP(C)C)CP(C)C.COCC(COC)(CP(C)C)CP(C)C.O=[N][99Tc+][Cl].[Cl-]` [Example 19], in series [1] (2 min), the Blood is given as 2.05 % injected dose/organ, the Heart came to 1.56 % injected dose/organ, the “Heart/Blood Counts/Gram ratio” value was 10.9 and the “Heart/Liver Counts/Gram ratio” value amounted to 1.56. Moreover, in series [1] (2 min), the “Heart/Lung Counts/Gram ratio” value amounted to 1.8, the “Heart/Muscle Counts/Gram ratio” value is 4.57, the “Kidney + Urine” value is 8.94 % injected dose/organ and the Liver is listed as 13.2 % injected dose/organ. For the same compound, in series [1] (2 min), the “Liver + GI” value amounted to 35.3 % injected dose/organ, the Lung is listed as 1.33 % injected dose/organ and the Muscle amounted to 36.2 % injected dose/organ. Besides, in series [1] (60 min), the Blood turned out to be 0.14 % injected dose/organ, the Heart turned out to be 1.47 % injected dose/organ, the “Heart/Blood Counts/Gram ratio” value was determined as 192 and the “Heart/Liver Counts/Gram ratio” value came out at 17.2. Further, in series [1] (60 min), the “Heart/Lung Counts/Gram ratio” value is listed as 3.6, the “Heart/Muscle Counts/Gram ratio” value came to 5.6, the “Kidney + Urine” value came to 11.0 % injected dose/organ and the Liver was 1.03 % injected dose/organ. Moreover, in series [1] (60 min), the “Liver + GI” value is on record as 45.5 % injected dose/organ, the Lung stood at 0.68 % injected dose/organ and the Muscle was found to be 28.2 % injected dose/organ. In addition, in series [2] (setting [3]), the Blood is on record as 3.77 % injected dose/organ, the Heart worked out at 1.36 % injected dose/organ, the “Heart/Blood Counts/Gram ratio” value amounted to 8.66 and the “Heart/Liver Counts/Gram ratio” value is listed as 2.20. Moreover, in series [2] (setting [3]), the “Heart/Lung Counts/Gram ratio” value came to 0.9, the “Heart/Muscle Counts/Gram ratio” value was 4.65, the “Kidney + Urine” value is 15.5 % injected dose/organ and the Liver came out at 11.0 % injected dose/organ. In addition, in series [2] (setting [3]), the “Liver + GI” value was 35.0 % injected dose/organ, the Lung is given as 1.57 % injected dose/organ and the Muscle came to 38.6 % injected dose/organ. In series [2] (setting [4]), the Blood was 0.48 % injected dose/organ, the Heart was 1.05 % injected dose/organ, the “Heart/Blood Counts/Gram ratio” value came out at 49.6 and the “Heart/Liver Counts/Gram ratio” value stood at 17.5. In series [2] (setting [4]), the “Heart/Lung Counts/Gram ratio” value stood at 2.0, the “Heart/Muscle Counts/Gram ratio” value came out at 4.77, the “Kidney + Urine” value is given as 18.1 % injected dose/organ and the Liver came to 0.92 % injected dose/organ. Besides, in series [2] (setting [4]), the “Liver + GI” value is listed as 45.9 % injected dose/organ, the Lung was determined as 0.52 % injected dose/organ and the Muscle was 30.6 % injected dose/organ.

In series [1] (2 min), `CP(C)CC1(CP(C)C)CCOCC1` [PL49] registered an HEART/BLOOD of 1.13, an HEART/LIVER of 0.11 and a Heart of 0.32. Further, in series [1] (60 min), the HEART/BLOOD is reported as 131, the HEART/LIVER turned out to be 0.24 and the Heart came to 0.18.
